The source of these data is US5493027A, “Anticonvulsive agents and uses thereof” (priority 1993, dated 1996).

Data set [1] relates to maximal electroshock seizures (MES). The data set is described as follows: animal or person. The conditions noted are these: Mus musculus, ip. It is filed as in vivo, male Carworth Farms number-1 mice. The procedure:
(§1) Compounds were screened for anticonvulsant activity in male Carworth Farms number-1 mice. Test solutions of all compounds were prepared in 30% polyethylene glycol 400, and animals were dosed intraperitoneally at either 30 minutes or 4 hours prior to testing. Testing was conducted on four mice at each of three dose levels (30, 100, and 300 mg/kg).
(§2) Maximal electroshock seizures (MES) were elicited with a 60 cycle alternatiing current of 50-mA intensity (five to seven times that necessary to evoke minimal electroshock threshold seizures). Current was delivered via corneal electrodes for 0.2 s. A drop of 0.9% saline was instilled in the eye prior to application of electrodes. Abolition of the hindlimb tonic extension component of the seizure was defined as protection in the MES test.
(§3) Biological testing--Compounds were screened for anticonvulsant activity in male Carworth Farms number-one mice. Test solutions of all compounds were prepared in 30% polyethylene glycol 400, and animals were dosed intraperitoneally at either 30 min or 4 h prior to testing. Testing was conducted on four mice at each of three dose levels (30, 100, and 300 mg/kg).
(§4) Maximal electroshock seizures (MES) were elicited with a 60 cycle alternating current of 50-mA intensity (five to seven times that necessary to evoke minimal electroshock threshold seizures). Current was delivered via corneal electrodes for 0.2 s. A drop of 0.9% saline was instilled in the eye prior to application of electrodes. Abolition of the hindlimb tonic extension component of the seizure was defined as protection in the MES test.

Data set [2] concerns pentylenetetrazole (Metrazol) induced seizures. The data set can be described thus: Subcutaneous pentylenetetrazole (Metrazol) seizure threshold test (Met) in mice. Format: in vivo, male Carworth Farms number-1 mice. The conditions noted are these: Table 7, value in parentheses = maximum ineffective dose. The procedure:
as §1
(§5) In the subcutaneous pentylenetetrazole (Metrazol) seizure threshold test(met), 85 mg/kg pentylenetetrazole was administered as a 0.5% solution in the posterior midline. Protection in this test was defined as a failure to observe a single episode of clonic spasms of at least 5 s duration during the 30 minute period following administration of the convulsive agent.
as §3
(§6) In the subcutaneous pentylenetetrazole (Metrazol) seizure threshold test (Met), 85 mg/kg pentylenetetrazole was administered as a 0.5% solution in the posterior midline. Protection in this test was defined as a failure to observe a single episode of clonic spasms of at least 5 s duration during the 30 min period following administration of the convulsive agent.

Data set [3] is described as follows: Rotorod test for neurological deficit (TOX) in mice. The settings on record: mouse, in vivo, ip; Table 7, value in parentheses = maximum ineffective dose; read-out: (Maximum Ineffective) Intraperitoneal Dose, Rotorod. Format: in vivo, male Carworth Farms number-1 mice. The procedure: as §1
Animals were also tested for neurological deficit using the rotorod. After treatment, the animal was placed on a 1 inch diameter knurled plastic rod rotating at 6 rpm. Neurologic deficit was defined as the failure of the animal to remain on the rod for 1 minute.
as §3
Animals were also tested for neurological deficit using the rotorod. After treatment, the animal was placed on a 1 inch diameter knurled plastic rod rotating at 6 rpm. Neurologic deficit was defined as the failure of the animal to remain on the rod for 1 min.

In data set [4] the target is T1, strychnine-insensitive glycine binding site of the NMDA receptor (Rattus norvegicus, UniProt P35439).
T1 construct: Membranes were prepared from rat cerebral cortex; from tissue; host or cells: rat cerebral cortex, "buffy coat" membranes
The data set can be described thus: Inhibition of [3H]glycine specific binding (strychnine-insensitive) in rat cerebral cortex membranes. The conditions noted are these: 10 uM compound. The procedure: Binding Studies--Inhibition of [^3 H]glycine specific binding was assayed using [^3 H]glycine (43 Ci/mmol) obtained from DuPont-New England Nuclear. […] Membranes were prepared from rat cerebral cortex and assays were conducted in Na-free 50 mM HEPES (Sigma) at pH 7.4. Membranes were incubated in a final volume of 1 ml with 20 nM [^3 H]glycine and a 10 uM concentration of the test compound. Although experience has shown that [^3 H]glycine binding in this preparation is strychnine insensitive, 10 uM strychnine was added to the assay mixtures to eliminate the possibility that any effects studied could be mediated through a strychnine-sensitive process. Incubation was continued for 20 min at 4° C. Non-specific binding was determined in the presence of 1 mM glycine and subtracted. All conditions were tested in triplicate in 3 different assays. Binding was terminated using a Brandel M-24C cell harvester employing rapid filtration through GF/C glass fiber filters pre-soaked in 1% (V/V) polyethylenimine. Filters were washed twice with 5 ml buffer cooled to 4° C. Radioactivity bound to the filters was determined with a Beckman LS-500OTD liquid scintillation counter.

The subject of data set [5] is seizures induced by electroshock and pentylenetetrazole. The data set can be described thus: Anticonvulsant testing, overall (MES and Met). Format: in vivo, male Carworth Farms number-1 mice. The conditions noted are these: Mus musculus, ip, read-out: dose level with anticonvulsant activity (test not given). The procedure: as §1, §2, §5, §3, §4, §6
In data set [6] the test system is potentiating action of glycine on current elicited by NMDA. The conditions noted are these: whole cells (Huettner, 1989); cited from earlier work.
Data set [7] has as its target T1, strychnine-insensitive glycine binding site of the NMDA receptor. The settings on record: literature value of the standard; read-out: IC50 for glycine binding in this test system; cited from earlier work.
The target of data set [8] is strychnine-insensitive glycine binding site. The conditions noted are these: see also Kemp et al., 1988; cited from earlier work.
Another data set has as its target NMDA receptor. The conditions noted are these: see also Kemp et al., 1988; cited from earlier work.
A further data set deals with quisqualate receptor. The settings on record: see also Kemp et al., 1988; cited from earlier work.
The target in the next data set is kainate receptor. The settings on record: see also Kemp et al., 1988; unit inferred; cited from earlier work.
The test system of data set [9] is NMDA-associated glycine site. The settings on record: Xenopus oocytes injected with rat brain mRNA (Kleckner and Dingledine, 1989); cited from earlier work.
The test system of another data set is anticonvulsant activity. The conditions noted are these: Wong et al., 1986; Singh et al., 1990; cited from earlier work.

Where two headings read alike, the source gives them in different places. Some results are limits rather than exact numbers.

Take `O=C(O)c1cc2cc(F)ccc2[nH]1` [5-F-indole-2-COOH, 5-fluoro-indole-2-carboxylic acid]: the minimal effective dose was 100 mg/kg in data set [1] (read-out: Effective Intraperitoneal Dose, MES); 100 mg/kg in [1] (read-out: dose active in MES test); 100 mg/kg in data set [5]. In addition, the “(Maximum Ineffective) Intraperitoneal Dose, Met” value in [2] is 300 mg/kg. Moreover, the NOAEL in data set [3] was found to be 300 mg/kg. In addition, in [4], the “[3H]glycine binding inhibition” value was “most potent inhibitor of [^3 H]glycine binding in this group”. In data set [6], the “inhibition of potentiating action of glycine on NMDA current” value is given as “inhibit competitively the potentiating action of glycine”.
On to `O=C(O)c1cc(O)c2ccc(Cl)cc2n1` [7-Cl-Kyn, 7-chloro-kynurenic acid], for which the concentration for half-maximal inhibition (IC50) in [7] is 270 to 560 nM; in data set [8], 560 nM; on NMDA receptor, 169 µM; at quisqualate receptor, 153 µM; on kainate receptor, greater than 1 mM. For the same molecule, the “more potent as antagonist at the NMDA-associated glycine site than at the receptor mediating kainate currents” value in [9] is on record as “approximately 40 fold”. For the same molecule, the “anticonvulsant activity (words, literature)” value in the data set with anticonvulsant activity was “demonstrate anticonvulsant activity”.

Usually IC50 stands for the concentration needed to halve the response being measured.
